Consider 22 molecules from US11426374B2, “Modification of the pH and other physical properties of oxaloacetic acid to allow for enhanced stability and multiple delivery systems” (Terra Biological LLC, priority 2015, dated 2022).

Entries after “also recorded” stand apart in the source; their conditions may differ.

Series [1] is described as follows: Lozenge of oxaloacetic acid with a test substance, stability in open environment for one week. The following applies: for decomposition of oxaloacetic acid compounded with the ingredient and compressed into a lozenge: examination over a period of one week; for effective way of increasing the pH without degrading the oxaloacetic acid: pH modifier combined with oxaloacetic acid. The source says:
The Applicant set out on a path of discovery to ascertain what compounds would be stable with oxaloacetic acid—not just for pH modification, but for other physical properties necessary for various delivery systems, such as color stabilization, lozenge dissolve time, lozenge friability, taste, lozenge release from the tablet mold, flow agents, and bulking agents in addition to pH modification. Preparations of oxaloacetic acid was compounded with various ingredients and compressed into a lozenge for examination over a period of one week.
A lozenge is created consisting of 100 mg oxaloacetic acid, and 100 mg of a test substance. The powders are compressed in a tablet mold and released. Each test tablet is placed on a cardboard for one week to ascertain stability in an open environment, such as an open bottle.
The procedure in Example 1 was followed, but with the following individual modifiers to oxaloacetic acid: • Calcium Carbonate (pH Modifier) • Erythitol (Taste Modifier) • Dicalcium Phosphate dihydrate (pH Modifier and lozenge binder) • Vegetable Steric Acid (Release Agent) • Ascorbyl Palmitate (Release Agent)

For series [2] the following is noted: oxaloacetic acid with anhydrous NaOH or KOH or both.
The nature of series [3]: pH of solution created by oxaloacetic acid delivered to the mouth. In kind it is physicochemical. The settings on record: delivered to the mouth in powder or lozenge form. The text has this:
Other methods of delivery are transdermal patches, sublingual lozenges, buccal lozenges, inhalation preparations and anal or vaginal suppositories. These methods of delivery can provide higher percentages of the given oxaloacetate to the blood stream for distribution to various organs, and provide the oxaloacetate quicker than the oral route. These delivery methods face a problem with the acidity of oxaloacetic acid. As an example of this, oxaloacetic acid delivered to the mouth in powder or lozenge form creates a solution at a pH of approximately 2.3. This low pH degrades the enamel on the teeth, and provides a large challenge to continued long-term use of oxaloacetate in sublingual lozenges and buccal lozenges. The effect on the teeth is apparent after just 100 mg oxaloacetate is taken either sublingually or via buccal lozenge. The low pH also causes a painful burning sensation in the lungs if inhaled. Vaginal and anal suppositories are also uncomfortable at low pH. Transdermal patches at low pH are also uncomfortable.

The conditions of series [4]: Yoshikawa 1968; Cash 2013; room temperature for the sodium salt; cited from earlier work.

As to `CCCCCCCCCCCCCCCC(=O)OC[C@H](O)[C@H]1OC(=O)C(O)=C1O` [Ascorbyl Palmitate], the “decomposition of oxaloacetic acid compounded with the ingredient and compressed into a lozenge” value (from here on “decomposition”) in series [1] is reported as “effective”.
With `O=C([O-])[O-].[Ca+2]` [Calcium Carbonate], in series [1], the “decomposition” value is recorded as “effective”; the “effective way of increasing the pH without degrading the oxaloacetic acid” value was “effective”.
For the molecule `O=P([O-])([O-])O.[Ca+2]` [Calcium Phosphate Dibasic], the “decomposition” value in series [1] is “rapid decomposition”.
As for `O=C(O)CC(O)(CC(=O)O)C(=O)O` [Citric Acid], the “decomposition” value in series [1] was “rapid decomposition”.
On to `O.O.O=P([O-])([O-])O.[Ca+2]` [Dicalcium Phosphate dihydrate], for which the “decomposition” value in series [1] is “effective”.
On the same count and under the same terms, as for `OC[C@@H](O)[C@@H](O)CO` [Erythitol], the entry is “effective”.
Consider `[K+].[OH-]` [KOH, potassium hydroxide], for which, in series [1], the “decomposition” value is recorded as “rapid decomposition”; the “effective way of increasing the pH without degrading the oxaloacetic acid” value was “not effective”. Further, the “degradation of sublingual tablets after manufacture” value in series [2] is recorded as “degraded within a few days”.
In the case of `[Mg+2].[OH-].[OH-]` [Magnesium Hydroxide], in series [1], the “decomposition” value is “rapid decomposition”.
As for `[O]=[Mg]` [Magnesium Oxide], the “decomposition” value in series [1] is recorded as “rapid decomposition”.
The same measure, in the same setting: as for `[Cl-].[Na+]` [NaCl], the entry is “rapid decomposition”; as for `[Na+].[OH-]` [NaOH, sodium hydroxide], “rapid decomposition”.
Take `O=C([O-])O.[K+]` [Potassium Bicarbonate]: in series [1], the “decomposition” value was “rapid decomposition”.
As for `O=C([O-])CC(O)(CC(=O)[O-])C(=O)[O-].[K+].[K+].[K+]` [Potassium Citrate], the “decomposition” value in series [1] is on record as “rapid decomposition”.
As for `O=C([O-])O.[Na+]` [Sodium bicarbonate], in series [1], the “decomposition” value is on record as “rapid decomposition”; the “effective way of increasing the pH without degrading the oxaloacetic acid” value was “not effective”.
On to `OC[C@H]1O[C@@](CO)(O[C@H]2O[C@H](CO)[C@@H](O)[C@H](O)[C@H]2O)[C@@H](O)[C@@H]1O` [Table sugar], for which, in series [1], the “decomposition” value was “rapid decomposition”.
Still for that read-out and setting: as for `[O]=[Ti]=[O]` [TiO2], the entry is “rapid decomposition”; as for `CCCCCCCCCCCCCCCCCC(=O)O` [Vegetable Steric Acid], “effective”.
Still for that read-out and setting: then `OC[C@@H](O)[C@H](O)[C@@H](O)CO` [Xylitol], with “rapid decomposition; also recorded: did not work well”.
Regarding `O=C(O)CC(=O)C(=O)O` [oxaloacetic acid], the pH of solution result in series [3] is recorded as “approximately 2.3”. Further, the stability entry in series [4] is “not stable at all”.
With `O=C([O-])CC(=O)C(=O)O.[Na+]` [sodium oxaloacetate], in series [4], the stability entry was “not stable, and quickly degrades at room temperature”.
For the molecule Magnesium Stearate, in series [1], the “decomposition” value is on record as “rapid decomposition”.
Silicon Dioxide: the “decomposition” value in series [1] is on record as “rapid decomposition”.
